Assay: xn = mol fraction of the nth substance listed
Settings: Liquid, Pulse-echo method

CCCCCCC [heptane] + CCCO
Settings | speed of sound [m/s]
308.07 K, 30400 kPa, x2 = 0 | 1290.3
308.07 K, 45590 kPa, x2 = 0 | 1368.7
308.08 K, 100 kPa, x2 = 0 | 1087.4
308.08 K, 15200 kPa, x2 = 0 | 1200.4
308.09 K, 121580 kPa, x2 = 0.7016 | 1655.6
308.09 K, 121580 kPa, x2 = 0.7986 | 1657.2
308.1 K, 121580 kPa, x2 = 0.3008 | 1657.5
308.1 K, 121580 kPa, x2 = 0.4992 | 1655.4
308.11 K, 30400 kPa, x2 = 0.6027 | 1293.7
308.11 K, 91190 kPa, x2 = 0 | 1562.4
308.11 K, 111450 kPa, x2 = 0.4992 | 1622.6
308.11 K, 111450 kPa, x2 = 0.7986 | 1625.7
308.12 K, 100 kPa, x2 = 0.3008 | 1086.3
308.12 K, 15200 kPa, x2 = 0.1008 | 1194.9
308.12 K, 60790 kPa, x2 = 0 | 1439
308.12 K, 75990 kPa, x2 = 0 | 1503.2
308.12 K, 91190 kPa, x2 = 0.7016 | 1555.2
308.13 K, 30400 kPa, x2 = 0.7986 | 1308.5
308.14 K, 45590 kPa, x2 = 0.6027 | 1368.1
308.14 K, 60790 kPa, x2 = 0.7986 | 1444.4
308.14 K, 91190 kPa, x2 = 0.3008 | 1552.6
308.14 K, 101320 kPa, x2 = 0.7986 | 1592.7
308.14 K, 111450 kPa, x2 = 0.3008 | 1624.1
308.15 K, 100 kPa, x2 = 0.7986 | 1128.4
308.15 K, 45590 kPa, x2 = 0.7986 | 1379.8
308.15 K, 60790 kPa, x2 = 0.3008 | 1431.2
308.15 K, 101320 kPa, x2 = 0.4992 | 1588.3
308.16 K, 45590 kPa, x2 = 0.3008 | 1362
308.16 K, 101320 kPa, x2 = 0.3008 | 1589.1
308.16 K, 101320 kPa, x2 = 0.7016 | 1590
308.16 K, 111450 kPa, x2 = 0.6027 | 1622.3
308.17 K, 75990 kPa, x2 = 0.3008 | 1494.3
308.17 K, 75990 kPa, x2 = 0.6027 | 1496.3
308.17 K, 111450 kPa, x2 = 0.7016 | 1623.4
308.17 K, 121580 kPa, x2 = 0 | 1668.6
308.18 K, 60790 kPa, x2 = 0.6027 | 1435
308.18 K, 75990 kPa, x2 = 0.4992 | 1495.2
308.18 K, 91190 kPa, x2 = 0.4992 | 1552.3
308.18 K, 91190 kPa, x2 = 0.6027 | 1552.8
308.18 K, 121580 kPa, x2 = 0.6027 | 1654.7
308.19 K, 30400 kPa, x2 = 0.3008 | 1284.8
308.19 K, 60790 kPa, x2 = 0.4992 | 1433
308.19 K, 75990 kPa, x2 = 0.7986 | 1503.4
308.2 K, 100 kPa, x2 = 0.4992 | 1095.2
308.2 K, 30400 kPa, x2 = 0.4992 | 1289.6
308.2 K, 45590 kPa, x2 = 0.4992 | 1365.2
308.2 K, 45590 kPa, x2 = 0.7016 | 1373.1
308.2 K, 75990 kPa, x2 = 0.1008 | 1497.7
308.2 K, 91190 kPa, x2 = 0.7986 | 1558.1
308.2 K, 101320 kPa, x2 = 0.1008 | 1593.7
308.21 K, 100 kPa, x2 = 0.6027 | 1103.5
308.21 K, 100 kPa, x2 = 0.7016 | 1114.7
308.21 K, 60790 kPa, x2 = 0.1008 | 1433.6
308.21 K, 60790 kPa, x2 = 0.7016 | 1438.8
308.21 K, 111450 kPa, x2 = 0 | 1634.6
308.22 K, 100 kPa, x2 = 0.1008 | 1082.2
308.22 K, 30400 kPa, x2 = 0.1008 | 1284.6
308.22 K, 30400 kPa, x2 = 0.7016 | 1300
308.22 K, 45590 kPa, x2 = 0.1008 | 1363.2
308.22 K, 91190 kPa, x2 = 0.1008 | 1556.7
308.22 K, 111450 kPa, x2 = 0.1008 | 1628.9
308.23 K, 75990 kPa, x2 = 0.7016 | 1499.1
308.23 K, 121580 kPa, x2 = 0.1008 | 1662.3
308.24 K, 101320 kPa, x2 = 0 | 1599.1
308.24 K, 101320 kPa, x2 = 0.6027 | 1588.1
313.08 K, 100 kPa, x2 = 0.7986 | 1109.7
313.08 K, 75990 kPa, x2 = 0.7986 | 1490.8
313.09 K, 30400 kPa, x2 = 0.4992 | 1273.3
313.09 K, 60790 kPa, x2 = 0.4992 | 1418.7
313.1 K, 100 kPa, x2 = 0 | 1066.1
313.1 K, 100 kPa, x2 = 0.6027 | 1083.9
313.1 K, 15200 kPa, x2 = 0 | 1182
313.1 K, 60790 kPa, x2 = 0.7986 | 1431
313.1 K, 75990 kPa, x2 = 0 | 1489.2
313.1 K, 121580 kPa, x2 = 0.7986 | 1645.9
313.11 K, 45590 kPa, x2 = 0.7986 | 1365.7
313.11 K, 91190 kPa, x2 = 0.7016 | 1542.7
313.11 K, 91190 kPa, x2 = 0.7986 | 1546.1
313.11 K, 101320 kPa, x2 = 0.7986 | 1580.9
313.12 K, 30400 kPa, x2 = 0 | 1273.3
313.12 K, 30400 kPa, x2 = 0.6027 | 1277.6
313.12 K, 45590 kPa, x2 = 0 | 1353
313.12 K, 45590 kPa, x2 = 0.3008 | 1346.5
313.12 K, 60790 kPa, x2 = 0 | 1424.3
313.12 K, 60790 kPa, x2 = 0.1008 | 1419
313.12 K, 75990 kPa, x2 = 0.6027 | 1482.9
313.12 K, 91190 kPa, x2 = 0.6027 | 1540
313.12 K, 101320 kPa, x2 = 0.6027 | 1575.9
313.12 K, 111450 kPa, x2 = 0.7986 | 1614.1
313.13 K, 45590 kPa, x2 = 0.1008 | 1347.6
313.13 K, 45590 kPa, x2 = 0.6027 | 1353
313.13 K, 91190 kPa, x2 = 0 | 1549
313.13 K, 101320 kPa, x2 = 0.7016 | 1578
313.13 K, 121580 kPa, x2 = 0 | 1656.4
313.14 K, 15200 kPa, x2 = 0.1008 | 1176.1
313.14 K, 60790 kPa, x2 = 0.6027 | 1420.9
313.14 K, 75990 kPa, x2 = 0.1008 | 1483.7
